Measurements as given in US9695155B2, “Herbicidal substituted pyrimidinyloxy benzene compounds” (E. I. DU PONT DE NEMOURS AND COMPANY, priority 2013, dated 2017).

Columns and labels:
barnyardgrass [1] = experiment: Test B flooded paddy test; assay type: in vivo, Echinochloa crus-galli; conditions: Flood, 250 g ai/ha; 0 to 100 scale where 0 is no effect and 100 is complete control
How it was run: (§1)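 Greenhouse flooded-pot test: compounds dosed into 3 cm standing water over 2-leaf plants, flood held constant. Rated visually after 13–15 days on 0–100 (complete control = 100); a dash marks no test result.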

pigweed [2] = experiment: Test A preemergence; assay type: in vivo, Amaranthus retroflexus; conditions: for Pigweed plant response rating (0 to 100 scale): 31 g ai/ha; for Plant response rating, Pigweed: 125 g ai/ha, 0 to 100 scale where 0 is no effect and 100 is complete control
How it was run: (§2)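 Compounds in non-phytotoxic solvent with surfactant applied as soil spray preemergence, or postemergence to plants 2-10 cm at one- to two-leaf stage, in loam/sand. After approximately 10 days in greenhouse, injury rated visually versus untreated controls, 0 (no effect) to 100 (complete control).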

ragweed [3] = experiment: Test A preemergence; assay type: in vivo, Ambrosia elatior; conditions: for Ragweed plant response rating (0 to 100 scale): 31 g ai/ha; for Plant response rating, Ragweed: 125 g ai/ha, 0 to 100 scale where 0 is no effect and 100 is complete control
How it was run: as §2

blackgrass = experiment: Test A postemergence; assay type: in vivo, Alopecurus myosuroides
How it was run: as §2

giant foxtail [4] = experiment: Test A postemergence; assay type: in vivo, Setaria faberii
How it was run: as §2

ragweed [5] = experiment: Test A postemergence; assay type: in vivo, Ambrosia elatior
How it was run: as §2

barnyardgrass [6] = experiment: Test A postemergence; assay type: in vivo, Echinochloa crus-galli
How it was run: as §2

wheat = experiment: Test A postemergence; assay type: in vivo, Triticum aestivum
How it was run: as §2

corn = experiment: Test A postemergence; assay type: in vivo, Zea mays
How it was run: as §2

giant foxtail [7] = experiment: Test A preemergence; assay type: in vivo, Setaria faberii; conditions: for Foxtail, Giant plant response rating (0 to 100 scale): 31 g ai/ha; for Plant response rating, Foxtail, Giant: 125 g ai/ha, 0 to 100 scale where 0 is no effect and 100 is complete control
How it was run: as §2

Italian ryegrass [8] = experiment: Test A preemergence; assay type: in vivo, Lolium multiflorum; conditions: for Ryegrass, Italian plant response rating (0 to 100 scale): 31 g ai/ha; for Plant response rating, Ryegrass, Italian: 125 g ai/ha, 0 to 100 scale where 0 is no effect and 100 is complete control
How it was run: as §2

sedge, umbrella = experiment: Test B flooded paddy test; assay type: in vivo, Cyperus difformis; conditions: Flood, 250 g ai/ha; 0 to 100 scale where 0 is no effect and 100 is complete control
How it was run: as §1

pigweed [9] = experiment: Test A postemergence; assay type: in vivo, Amaranthus retroflexus
How it was run: as §2

Heteranthera limosa = experiment: Test B flooded paddy test; assay type: in vivo; conditions: Flood, 250 g ai/ha; 0 to 100 scale where 0 is no effect and 100 is complete control
How it was run: as §1

Italian ryegrass [10] = experiment: Test A postemergence; assay type: in vivo, Lolium multiflorum
How it was run: as §2

barnyardgrass [11] = experiment: Test A preemergence; assay type: in vivo, Echinochloa crus-galli; conditions: for Barnyardgrass plant response rating (0 to 100 scale): 31 g ai/ha; for Plant response rating, Barnyardgrass: 125 g ai/ha, 0 to 100 scale where 0 is no effect and 100 is complete control
How it was run: as §2

kochia [12] = experiment: Test A preemergence; assay type: in vivo, Kochia scoparia; conditions: for Kochia plant response rating (0 to 100 scale): 31 g ai/ha; for Plant response rating, Kochia: 125 g ai/ha, 0 to 100 scale where 0 is no effect and 100 is complete control
How it was run: as §2

galium = experiment: Test A postemergence; assay type: in vivo, Galium aparine
How it was run: as §2

kochia [13] = experiment: Test A postemergence; assay type: in vivo, Kochia scoparia
How it was run: as §2

rice = experiment: Test B flooded paddy test; assay type: in vivo, Oryza sativa; conditions: Flood, 250 g ai/ha; 0 to 100 scale where 0 is no effect and 100 is complete control
How it was run: as §1

[14] = 31 g ai/ha, 0 to 100 scale, 0 no effect, 100 complete control
[15] = 125 g ai/ha, 0 to 100 scale where 0 is no effect and 100 is complete control
[16] = 500 g ai/ha, 0 to 100 scale, 0 no effect, 100 complete control, approx. 10 days
[17] = 500 g ai/ha, 0 to 100 scale, 0 no effect, 100 complete control
[18] = 500 g ai/ha, 0 to 100 scale where 0 is no effect and 100 is complete control

Row | SMILES | Plant response rating, Barnyardgrass (barnyardgrass [1]) | Pigweed plant response rating (0 to 100 scale) (pigweed [2]) | Plant response rating, Pigweed (pigweed [2]) | Ragweed plant response rating (0 to 100 scale) (ragweed [3]) | Plant response rating, Ragweed (ragweed [3]) | Plant response rating, Blackgrass (blackgrass; [14]) | Plant response rating, Blackgrass (blackgrass; [15]) | Plant response rating, Foxtail, Giant (giant foxtail [4]; [14]) | Plant response rating, Foxtail, Giant (giant foxtail [4]; [15]) | Plant response rating, Barnyardgrass (barnyardgrass [6]; [15]) | Plant response rating, Corn (corn; [15]) | Plant response rating, Foxtail, Giant (giant foxtail [7]) | Plant response rating, Ryegrass, Italian (Italian ryegrass [8]) | Plant response rating, Sedge, Umbrella (sedge, umbrella) | Plant response rating, Ducksalad (Heteranthera limosa) | Plant response rating, Barnyardgrass (barnyardgrass [11]) | Plant response rating, Kochia (kochia [12]) | Plant response rating, Galium (galium; [15]) | Plant response rating, Kochia (kochia [13]; [15]) | Plant response rating, Rice (rice) | also measured
1 | FCc1cccc(Oc2ncc(Cl)cn2)c1-n1cc(C(F)(F)F)cn1 [Compound 119] | 40 | 100 | 100 | 0 | 60 | 40 | 70 | 30 | 80 | 70 | 50 | 100 | 80 | 95 | 95 | 90 | 100 | 100 | 90 | 25 | Plant response rating, Ragweed (ragweed [5]; [14]): 30; Plant response rating, Barnyardgrass (barnyardgrass [6]; [14]): 40; Plant response rating, Wheat (wheat; [14]): 10; Plant response rating, Corn (corn; [14]): 10; Foxtail, Giant plant response rating (0 to 100 scale) (giant foxtail [7]): 90; Ryegrass, Italian plant response rating (0 to 100 scale) (Italian ryegrass [8]): 10; Plant response rating, Pigweed (pigweed [9]; [14]): 70; Plant response rating, Ryegrass, Italian (Italian ryegrass [10]; [14]): 30; Barnyardgrass plant response rating (0 to 100 scale) (barnyardgrass [11]): 30; Kochia plant response rating (0 to 100 scale) (kochia [12]): 50; Plant response rating, Galium (galium; [14]): 70; Plant response rating, Kochia (kochia [13]; [14]): 70
2 | CC(C)(C)c1cnn(-c2c(C#N)cccc2Oc2ncc(Cl)cn2)c1 [Compound 82] | 0 | – | 0 | – | 0 | – | 10 | – | 0 | 0 | 0 | 10 | 0 | 0 | 30 | 0 | 0 | 10 | 0 | 0 | Pigweed plant response rating (pigweed [2]; [16]): 60; Ragweed plant response rating (ragweed [3]; [16]): 0; Plant response rating, Blackgrass (blackgrass; [17]): 50; Plant response rating, Foxtail, Giant (giant foxtail [4]; [18]): 20; Plant response rating, Ragweed (ragweed [5]; [15]): 0; Plant response rating, Ragweed (ragweed [5]; [18]): 10; Plant response rating, Barnyardgrass (barnyardgrass [6]; [17]): 20; Plant response rating, Wheat (wheat; [15]): 0; Plant response rating, Wheat (wheat; [18]): 30; Plant response rating, Corn (corn; [17]): 10; Foxtail, Giant plant response rating (giant foxtail [7]; [16]): 70; Ryegrass, Italian plant response rating (Italian ryegrass [8]; [16]): 0; Plant response rating, Pigweed (pigweed [9]; [15]): 10; Plant response rating, Pigweed (pigweed [9]; [18]): 40; Plant response rating, Ryegrass, Italian (Italian ryegrass [10]; [15]): 0; Plant response rating, Ryegrass, Italian (Italian ryegrass [10]; [18]): 20; Barnyardgrass plant response rating (barnyardgrass [11]; [16]): 30; Kochia plant response rating (kochia [12]; [16]): 0; Plant response rating, Galium (galium; [18]): 20; Plant response rating, Kochia (kochia [13]; [18]): 10
3 | CC(C)Cc1cn(-c2c(F)cccc2Oc2ncc(Cl)cn2)nn1 [Compound 107] | 30 | 0 | 50 | 0 | 0 | 10 | 50 | 20 | 70 | 40 | 20 | 80 | 0 | 70 | 40 | 60 | 0 | 80 | 20 | 0 | Plant response rating, Ragweed (ragweed [5]; [14]): 30; Plant response rating, Barnyardgrass (barnyardgrass [6]; [14]): 0; Plant response rating, Wheat (wheat; [14]): 10; Plant response rating, Corn (corn; [14]): 0; Foxtail, Giant plant response rating (0 to 100 scale) (giant foxtail [7]): 30; Ryegrass, Italian plant response rating (0 to 100 scale) (Italian ryegrass [8]): 0; Plant response rating, Pigweed (pigweed [9]; [14]): 40; Plant response rating, Ryegrass, Italian (Italian ryegrass [10]; [14]): 0; Barnyardgrass plant response rating (0 to 100 scale) (barnyardgrass [11]): 10; Kochia plant response rating (0 to 100 scale) (kochia [12]): 0; Plant response rating, Galium (galium; [14]): 30; Plant response rating, Kochia (kochia [13]; [14]): 0
